Laboratory results published in patent publication US9340590B2 (priority 2011, dated 2016).
Like-named read-outs stand apart in the source and are kept apart here. Positions of bridges follow the written chain, without caps; N, C: chain ends. Residues, ends and D or L forms follow the SMILES beside them.

Assays:
Experiment in all cases: cell-based
hNav1.7 = hNav1.7 (Homo sapiens, UniProt Q15858); assay type: cell-based; settings: IonWorks Quattro, read-out: IWQ Use Nav1.7
hNav1.5 = hNav1.5 (Homo sapiens, UniProt Q14524)
hNav1.5, sequence (Q14524 whole entry, looked up): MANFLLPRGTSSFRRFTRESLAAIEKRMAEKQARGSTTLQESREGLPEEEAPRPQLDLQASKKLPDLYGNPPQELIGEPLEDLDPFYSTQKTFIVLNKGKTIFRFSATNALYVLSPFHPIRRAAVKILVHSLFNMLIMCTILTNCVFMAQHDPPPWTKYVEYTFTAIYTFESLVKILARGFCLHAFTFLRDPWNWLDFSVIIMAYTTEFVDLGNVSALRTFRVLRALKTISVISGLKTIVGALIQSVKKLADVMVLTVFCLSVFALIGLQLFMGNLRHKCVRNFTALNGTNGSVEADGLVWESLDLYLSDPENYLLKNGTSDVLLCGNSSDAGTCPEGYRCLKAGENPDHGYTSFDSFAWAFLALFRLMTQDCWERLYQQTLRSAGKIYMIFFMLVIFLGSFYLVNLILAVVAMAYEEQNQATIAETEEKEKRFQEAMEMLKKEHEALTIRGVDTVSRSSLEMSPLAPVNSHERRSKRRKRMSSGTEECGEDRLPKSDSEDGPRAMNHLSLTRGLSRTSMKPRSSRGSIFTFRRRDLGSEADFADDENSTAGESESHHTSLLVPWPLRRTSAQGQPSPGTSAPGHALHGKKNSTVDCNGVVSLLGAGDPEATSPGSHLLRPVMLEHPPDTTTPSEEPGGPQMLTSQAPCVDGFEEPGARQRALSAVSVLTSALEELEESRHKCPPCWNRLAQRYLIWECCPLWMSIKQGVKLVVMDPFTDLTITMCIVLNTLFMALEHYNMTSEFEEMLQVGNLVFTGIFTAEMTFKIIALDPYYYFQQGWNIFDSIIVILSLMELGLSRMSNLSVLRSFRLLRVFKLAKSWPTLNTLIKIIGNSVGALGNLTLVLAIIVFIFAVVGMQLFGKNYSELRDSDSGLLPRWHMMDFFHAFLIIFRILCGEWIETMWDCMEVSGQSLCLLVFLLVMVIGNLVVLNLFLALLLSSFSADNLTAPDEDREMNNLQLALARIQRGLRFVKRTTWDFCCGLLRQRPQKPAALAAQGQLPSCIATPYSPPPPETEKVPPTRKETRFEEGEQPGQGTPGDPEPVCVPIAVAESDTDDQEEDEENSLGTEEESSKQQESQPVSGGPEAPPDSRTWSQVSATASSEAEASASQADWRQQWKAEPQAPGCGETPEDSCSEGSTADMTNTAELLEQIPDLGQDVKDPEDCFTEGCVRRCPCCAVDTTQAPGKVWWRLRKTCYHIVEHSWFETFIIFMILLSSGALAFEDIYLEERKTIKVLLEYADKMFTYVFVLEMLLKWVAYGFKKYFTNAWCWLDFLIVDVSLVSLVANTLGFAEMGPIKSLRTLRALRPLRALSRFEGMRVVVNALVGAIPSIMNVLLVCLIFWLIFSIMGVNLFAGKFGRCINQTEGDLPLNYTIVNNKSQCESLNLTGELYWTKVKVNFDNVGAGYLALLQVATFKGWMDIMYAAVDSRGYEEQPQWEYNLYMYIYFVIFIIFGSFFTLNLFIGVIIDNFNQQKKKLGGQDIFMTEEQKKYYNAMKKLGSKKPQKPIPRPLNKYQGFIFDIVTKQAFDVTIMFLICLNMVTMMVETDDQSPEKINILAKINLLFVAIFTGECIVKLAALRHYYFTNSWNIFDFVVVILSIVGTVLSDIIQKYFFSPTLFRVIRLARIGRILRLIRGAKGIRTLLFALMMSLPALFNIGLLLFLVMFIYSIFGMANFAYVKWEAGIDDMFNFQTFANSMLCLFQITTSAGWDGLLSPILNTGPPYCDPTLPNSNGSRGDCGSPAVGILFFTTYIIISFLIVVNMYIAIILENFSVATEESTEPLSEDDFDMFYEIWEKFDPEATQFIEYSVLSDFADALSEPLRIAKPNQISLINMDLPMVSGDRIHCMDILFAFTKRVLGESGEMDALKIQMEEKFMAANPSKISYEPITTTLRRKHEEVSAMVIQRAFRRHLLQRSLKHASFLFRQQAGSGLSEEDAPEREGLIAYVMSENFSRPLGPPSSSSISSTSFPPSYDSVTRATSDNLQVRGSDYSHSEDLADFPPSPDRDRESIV

hNav1.3 = hNav1.3 (Homo sapiens, UniProt Q9NY46); settings: IonWorks Quattro, […], read-out: IWQ Use Nav1.3
[1] = clamped to −110 mV, depolarized to −10 mV, 5 min after compound, n=2
[2] = IonWorks Quattro, use-dependent, […], read-out: IWQ Use Nav1.5

hNav1.7, sequence (Q15858 whole entry, looked up): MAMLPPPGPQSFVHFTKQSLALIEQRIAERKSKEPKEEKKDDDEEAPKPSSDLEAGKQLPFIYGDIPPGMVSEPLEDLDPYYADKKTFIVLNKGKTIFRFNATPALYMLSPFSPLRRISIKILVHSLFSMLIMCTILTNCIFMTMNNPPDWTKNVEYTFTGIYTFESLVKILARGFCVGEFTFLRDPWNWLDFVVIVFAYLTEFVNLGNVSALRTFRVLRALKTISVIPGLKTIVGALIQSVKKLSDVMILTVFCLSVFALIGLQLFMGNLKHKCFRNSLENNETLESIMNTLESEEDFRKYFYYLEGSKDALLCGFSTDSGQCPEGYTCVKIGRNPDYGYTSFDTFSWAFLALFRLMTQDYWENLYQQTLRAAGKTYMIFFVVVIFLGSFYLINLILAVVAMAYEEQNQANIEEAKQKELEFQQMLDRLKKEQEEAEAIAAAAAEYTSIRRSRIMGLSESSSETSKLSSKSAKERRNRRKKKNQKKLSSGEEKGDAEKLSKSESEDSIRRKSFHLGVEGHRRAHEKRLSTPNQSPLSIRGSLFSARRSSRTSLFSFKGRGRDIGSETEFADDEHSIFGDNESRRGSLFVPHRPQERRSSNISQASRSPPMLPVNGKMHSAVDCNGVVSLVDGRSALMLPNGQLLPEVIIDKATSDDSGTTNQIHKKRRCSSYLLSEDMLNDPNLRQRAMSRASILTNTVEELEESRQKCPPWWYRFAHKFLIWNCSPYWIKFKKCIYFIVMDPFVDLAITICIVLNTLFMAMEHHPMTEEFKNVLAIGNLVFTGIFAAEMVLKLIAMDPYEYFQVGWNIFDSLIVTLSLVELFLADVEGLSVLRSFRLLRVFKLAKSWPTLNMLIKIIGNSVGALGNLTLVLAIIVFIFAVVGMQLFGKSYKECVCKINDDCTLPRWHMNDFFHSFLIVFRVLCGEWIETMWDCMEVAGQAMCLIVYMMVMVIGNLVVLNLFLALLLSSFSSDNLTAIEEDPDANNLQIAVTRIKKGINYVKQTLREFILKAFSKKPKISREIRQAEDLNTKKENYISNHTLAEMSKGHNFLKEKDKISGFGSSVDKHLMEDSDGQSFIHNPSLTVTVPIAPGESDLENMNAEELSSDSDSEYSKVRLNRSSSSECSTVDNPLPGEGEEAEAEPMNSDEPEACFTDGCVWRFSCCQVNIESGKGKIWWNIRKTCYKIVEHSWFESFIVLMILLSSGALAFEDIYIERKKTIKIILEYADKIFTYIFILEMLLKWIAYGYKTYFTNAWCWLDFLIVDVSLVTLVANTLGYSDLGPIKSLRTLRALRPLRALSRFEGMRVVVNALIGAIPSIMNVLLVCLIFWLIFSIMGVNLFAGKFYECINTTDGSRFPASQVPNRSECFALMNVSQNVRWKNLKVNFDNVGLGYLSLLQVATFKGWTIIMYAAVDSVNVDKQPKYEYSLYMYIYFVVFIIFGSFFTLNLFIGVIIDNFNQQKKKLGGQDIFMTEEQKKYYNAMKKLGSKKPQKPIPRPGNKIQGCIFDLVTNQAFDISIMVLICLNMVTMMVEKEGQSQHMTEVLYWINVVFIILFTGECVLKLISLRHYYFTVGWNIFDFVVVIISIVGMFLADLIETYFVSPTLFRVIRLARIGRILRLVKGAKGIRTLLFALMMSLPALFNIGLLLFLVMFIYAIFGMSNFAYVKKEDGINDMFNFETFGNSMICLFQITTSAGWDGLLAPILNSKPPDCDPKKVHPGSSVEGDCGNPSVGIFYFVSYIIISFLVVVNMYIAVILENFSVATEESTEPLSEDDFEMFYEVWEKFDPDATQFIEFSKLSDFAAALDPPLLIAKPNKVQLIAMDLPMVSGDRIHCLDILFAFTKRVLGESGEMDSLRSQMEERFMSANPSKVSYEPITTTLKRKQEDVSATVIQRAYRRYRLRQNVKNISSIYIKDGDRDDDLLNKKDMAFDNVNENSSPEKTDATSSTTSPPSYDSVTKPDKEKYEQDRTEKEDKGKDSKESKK

| Compound | IC50 (hNav1.7; [1]) [µM] | IC50 (hNav1.3; use-dependent) [µM] | IC50 (hNav1.5; [2]) [µM] | other results |
| --- | --- | --- | --- | --- |
| CC[C@H](C)[C@@H]1NC(=O)[C@@H]2CSSC[C@@H]3NC(=O)[C@H](C(C)C)NC(=O)[C@H](CC(C)C)NC(=O)[C@H](CC(N)=O)NC(=O)[C@@H]4CCCN4C(=O)[C@H](CCCNC(=N)N)NC(=O)[C@H](CSSC[C@H](NC(=O)[C@@H](N)CC(=O)O)C(=O)N[C@@H](CC(C)C)C(=O)NCC(=O)N[C@@H](CCC(=O)O)C(=O)N[C@@H](CCSC)C(=O)N[C@@H](CCCNC(=N)N)C(=O)N[C@@H](CCCCN)C(=O)N2)NC(=O)[C@H](CSSC[C@@H](C(=O)N[C@@H](CCCCN)C(=O)N[C@@H](Cc2ccc(O)cc2)C(=O)N[C@H](C(=O)N[C@@H](Cc2ccccc2)C(N)=O)C(C)C)NC(=O)[C@H](Cc2c[nH]c4ccccc24)NC(=O)[C@H](CCCCN)NC(=O)[C@H](Cc2cnc[nH]2)NC(=O)[C@H]([C@@H](C)O)NC(=O)[C@H](CCCNC(=N)N)NC(=O)[C@H](CO)NC3=O)NC(=O)[C@H](CCCCN)NC(=O)[C@H](CC(=O)O)NC(=O)[C@H](CC(N)=O)NC(=O)[C@H](CC(=O)O)NC(=O)[C@@H]2CCCN2C1=O [SEQ ID NO: 143] (H-DCLGEMRKCIPDNDKCCRPNLVCSRTHKWCKYVF-NH2; disulfide 2-17, 9-23, 16-30) | 17.7 | – | – | IC50 (hNav1.5; IWQ Use Nav1.5): 10 µM |
| CC[C@H](C)[C@@H]1NC(=O)[C@@H]2CSSC[C@@H]3NC(=O)[C@H](C(C)C)NC(=O)[C@H](CC(C)C)NC(=O)[C@H](CC(N)=O)NC(=O)[C@@H]4CCCN4C(=O)[C@H](CCCNC(=N)N)NC(=O)[C@H](CSSC[C@H](NC(=O)[C@@H](N)CC(=O)O)C(=O)N[C@@H](CC(C)C)C(=O)NCC(=O)N[C@@H](Cc4ccccc4)C(=O)N[C@@H](Cc4ccc(I)cc4)C(=O)N[C@@H](CCCNC(=N)N)C(=O)N[C@@H](CCCCN)C(=O)N2)NC(=O)[C@H](CSSC[C@@H](C(=O)N[C@@H](CCCCN)C(=O)N[C@@H](Cc2ccc(O)cc2)C(=O)N[C@H](C(=O)N[C@@H](Cc2ccccc2)C(N)=O)C(C)C)NC(=O)[C@H](Cc2c[nH]c4ccccc24)NC(=O)[C@H](CCCCN)NC(=O)[C@H](Cc2c[nH]cn2)NC(=O)[C@H]([C@@H](C)O)NC(=O)[C@H](CCCNC(=N)N)NC(=O)[C@H](CO)NC3=O)NC(=O)[C@H](CCCCN)NC(=O)[C@H](CC(=O)O)NC(=O)[C@H](CC(N)=O)NC(=O)[C@H](CC(=O)O)NC(=O)[C@@H]2CCCN2C1=O [SEQ ID NO: 291] | 0.02 | – | – | IC50 (hNav1.5; IonWorks Quattro, clamped to −110 mV, depolarized to −10 mV, 5 min after compound, n=2, read-out: IWQ Use Nav1.5): 0.95 µM |
| CC[C@H](C)[C@@H]1NC(=O)[C@@H]2CSSC[C@@H]3NC(=O)[C@H](C(C)C)NC(=O)[C@H](CC(C)C)NC(=O)[C@H](CC(N)=O)NC(=O)[C@@H]4CCCN4C(=O)[C@H](CCCNC(=N)N)NC(=O)[C@H](CSSC[C@H](NC(=O)[C@@H](N)CC(=O)O)C(=O)N[C@@H](CC(C)C)C(=O)NCC(=O)N[C@@H](Cc4ccccc4)C(=O)N[C@@H](CCSC)C(=O)N[C@@H](CCCNC(=N)N)C(=O)N[C@@H](CCCCN)C(=O)N2)NC(=O)[C@H](CSSC[C@@H](C(=O)N[C@@H](CCCCN)C(=O)N[C@@H](Cc2ccc(O)cc2)C(=O)N[C@H](C(=O)N[C@@H](Cc2ccccc2)C(N)=O)C(C)C)NC(=O)[C@H](Cc2c[nH]c4ccccc24)NC(=O)[C@H](CC(=O)O)NC(=O)[C@H](Cc2c[nH]cn2)NC(=O)[C@H]([C@@H](C)O)NC(=O)[C@H](CCCNC(=N)N)NC(=O)[C@H](CO)NC3=O)NC(=O)[C@H](CCCCN)NC(=O)[C@H](CC(=O)O)NC(=O)[C@H](CC(N)=O)NC(=O)[C@H](CC(=O)O)NC(=O)[C@@H]2CCCN2C1=O [SEQ ID NO: 750, [Asp28]GpTx-1] (H-DCLGFMRKCIPDNDKCCRPNLVCSRTHDWCKYVF-NH2; disulfide 2-17, 9-23, 16-30) | – | – | – | IC50 (hNav1.7; use-dependent block, hNav1.7): 0.73 µM; IC50 (hNav1.5; read-out: IWQ Use Nav1.5): 37.9 µM |
| CC[C@H](C)[C@@H]1NC(=O)[C@@H]2CSSC[C@@H]3NC(=O)[C@H](C(C)C)NC(=O)[C@H](CC(C)C)NC(=O)[C@H](CC(N)=O)NC(=O)[C@@H]4CCCN4C(=O)[C@H](CCCNC(=N)N)NC(=O)[C@H](CSSC[C@H](NC(=O)[C@@H](N)CC(=O)O)C(=O)N[C@@H](CC(C)C)C(=O)NCC(=O)N[C@@H](Cc4ccccc4)C(=O)N[C@@H](CCSC)C(=O)N[C@@H](CCCNC(=N)N)C(=O)N[C@@H](CCCCN)C(=O)N2)NC(=O)[C@H](CSSC[C@@H](C(=O)N[C@@H](CCCCN)C(=O)N[C@@H](Cc2ccc(O)cc2)C(=O)N[C@H](C(=O)N[C@@H](Cc2ccccc2)C(N)=O)C(C)C)NC(=O)[C@H](Cc2c[nH]c4ccccc24)N(C)C(=O)[C@H](CCCCN)NC(=O)[C@H](Cc2c[nH]cn2)NC(=O)[C@H]([C@@H](C)O)NC(=O)[C@H](CCCNC(=N)N)NC(=O)[C@H](CO)NC3=O)NC(=O)[C@H](CCCCN)NC(=O)[C@H](CC(=O)O)NC(=O)[C@H](CC(N)=O)NC(=O)[C@H](CC(=O)O)NC(=O)[C@@H]2CCCN2C1=O [compound 357] | – | – | – | IC50 (hNav1.3; Table 24, use): > 5 µM; IC50 (hNav1.5; IWQ Use Nav1.5 (μM)): > 5 µM |
| CC[C@H](C)[C@@H]1NC(=O)[C@@H]2CSSC[C@@H]3NC(=O)[C@H](C(C)C)NC(=O)[C@H](CC(C)C)NC(=O)[C@H](CC(N)=O)NC(=O)[C@@H]4CCCN4C(=O)[C@H](CCCNC(=N)N)NC(=O)[C@H](CSSC[C@H](NC(=O)[C@@H](N)CC(=O)O)C(=O)N[C@@H](CC(C)C)C(=O)NCC(=O)N[C@@H](Cc4ccccc4)C(=O)N[C@@H](CCSC)C(=O)N[C@@H](CCCNC(=N)N)C(=O)N[C@@H](CCCCN)C(=O)N2)NC(=O)[C@H](CSSC[C@@H](C(=O)N[C@@H](CCCCN)C(=O)N[C@@H](Cc2ccc(O)cc2)C(=O)N[C@H](C(N)=O)C(C)C)NC(=O)[C@H](Cc2c[nH]c4ccccc24)NC(=O)[C@H](CCCCN)NC(=O)[C@H](Cc2cnc[nH]2)NC(=O)[C@H]([C@@H](C)O)NC(=O)[C@H](CCCNC(=N)N)NC(=O)[C@H](CO)NC3=O)NC(=O)[C@H](CCCCN)NC(=O)[C@H](CC(=O)O)NC(=O)[C@H](CC(N)=O)NC(=O)[C@H](CC(=O)O)NC(=O)[C@@H]2CCCN2C1=O [compound 415] (H-DCLGFMRKCIPDNDKCCRPNLVCSRTHKWCKYV-NH2; disulfide 2-17, 9-23, 16-30) | – | 1.3 | 10.8 | – |
| CC[C@H](C)[C@@H]1NC(=O)[C@@H]2CSSC[C@@H]3NC(=O)[C@H](C(C)C)NC(=O)[C@H](CC(C)C)NC(=O)[C@H](CC(N)=O)NC(=O)[C@@H]4CCCN4C(=O)[C@H](CCCNC(=N)N)NC(=O)[C@H](CSSC[C@H](NC(=O)[C@@H](N)CC(=O)O)C(=O)N[C@@H](CC(C)C)C(=O)NCC(=O)N[C@@H](Cc4ccccc4)C(=O)N[C@@H](CCSC)C(=O)N[C@@H](CCCNC(=N)N)C(=O)N[C@@H](CCCCN)C(=O)N2)NC(=O)[C@H](CSSC[C@@H](C(=O)N[C@@H](CCCCN)C(=O)N[C@@H](Cc2ccc(O)cc2)C(N)=O)NC(=O)[C@H](Cc2c[nH]c4ccccc24)NC(=O)[C@H](CCCCN)NC(=O)[C@H](Cc2cnc[nH]2)NC(=O)[C@H]([C@@H](C)O)NC(=O)[C@H](CCCNC(=N)N)NC(=O)[C@H](CO)NC3=O)NC(=O)[C@H](CCCCN)NC(=O)[C@H](CC(=O)O)NC(=O)[C@H](CC(N)=O)NC(=O)[C@H](CC(=O)O)NC(=O)[C@@H]2CCCN2C1=O [compound 416] (H-DCLGFMRKCIPDNDKCCRPNLVCSRTHKWCKY-NH2; disulfide 2-17, 9-23, 16-30) | – | 0.88 | 8.64 | – |
